From article PMC4317055 (Journal of Medicinal Chemistry, 2014)

Key:
human factor XIa [1] = target: T1, human factor XIa (Homo sapiens, UniProt P03951); assay: Michaelis-Menten kinetics of S-2366 hydrolysis in the presence of inhibitors; assay type: biochemical; conditions: for VMAX: S-2366 0-1.6 mM; for mechanism of inhibition: VMAX reduced dose-dependently without significant change in KM
[2] = test system: fluorescein-EGR factor XIa (fEGR-fXIa); assay type: binding, human; conditions: bolus giving ∼33 μM in fXIa solution quenched with 0.175 M NaI
factor XIa = assay: Competitive inhibition studies using unfractionated heparin as a competitor; assay type: biochemical, human; conditions: UFH 0 to 16 μM; 50 mM Tris-HCl pH 7.4, 37 °C
human factor XIa [3] = target: T1, human factor XIa; assay: Dose-response inhibition of wild-type factor XIa, S-2366 hydrolysis assay; conditions: for improvement in potency over the best sulfated QAO designed earlier: comparison with earlier studies; for HS (Hill slope) / Y0 (minimum value of the residual activity): logistic fit eq 1; for Y0 (minimum value of the residual activity): residual activity Y in %
human factor XIa [4] = target: T1, human factor XIa; assay type: biochemical; conditions: 50 mM Tris-HCl pH 7.4, 37 °C; for enhancement of fXIa catalysis in the screen: 300 μM compound; for reduction in residual fXIa activity (inhibition) in the screen: 300 μM inhibitor

T1 sequence (P03951 19-387 limits assumed): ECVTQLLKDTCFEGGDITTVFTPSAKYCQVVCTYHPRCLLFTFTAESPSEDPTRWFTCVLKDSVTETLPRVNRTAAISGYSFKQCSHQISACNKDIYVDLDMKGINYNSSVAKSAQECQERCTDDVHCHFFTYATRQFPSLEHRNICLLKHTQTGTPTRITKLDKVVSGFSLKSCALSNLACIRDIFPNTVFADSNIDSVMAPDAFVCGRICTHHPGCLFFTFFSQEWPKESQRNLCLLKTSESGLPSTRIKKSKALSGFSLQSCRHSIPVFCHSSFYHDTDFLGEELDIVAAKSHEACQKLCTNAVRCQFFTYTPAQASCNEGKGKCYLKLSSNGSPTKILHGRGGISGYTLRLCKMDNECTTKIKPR
T1 sequence (P03951 388-625 limits assumed): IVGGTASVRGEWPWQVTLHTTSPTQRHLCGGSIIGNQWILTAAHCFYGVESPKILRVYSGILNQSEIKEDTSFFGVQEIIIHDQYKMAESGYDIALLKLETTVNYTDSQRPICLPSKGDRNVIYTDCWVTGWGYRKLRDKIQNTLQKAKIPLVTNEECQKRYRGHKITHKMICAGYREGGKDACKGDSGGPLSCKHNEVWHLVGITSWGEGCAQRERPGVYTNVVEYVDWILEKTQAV

Row | SMILES | HS (Hill slope) (human factor XIa [3]) | Y0 (minimum value of the residual activity) (human factor XIa [3]) | further results
1 | CCOC(=O)c1c(C)oc2cc(OC)c(OCc3oc4cc(OC)c(OCc5oc6cc(OCC)c(OS(=O)(=O)[O-])cc6c5C(=O)OCC)cc4c3C(=O)OCC)cc12.[Na+] [compound 24] | 3.8 ± 0.3 | 0 ± 1 | VMAX (human factor XIa [1]; 24 at 150 nM, fXIa 0.765 nM): 57.1 ± 1.8 mAU/min; VMAX (human factor XIa [1]; 24 at 300 nM, fXIa 0.765 nM): 48.7 ± 1.7 mAU/min; VMAX (human factor XIa [1]; 24 at 550 nM, fXIa 0.765 nM): 34.9 ± 0.9 mAU/min; VMAX (human factor XIa [1]; 24 at 900 nM, fXIa 0.765 nM): 9.8 ± 0.5 mAU/min; mechanism of inhibition (human factor XIa [1]): noncompetitive inhibition; nature of the interaction with fXIa (recovery of fluorescence after bolus) [2]: fully reversible; change in IC50 in the presence of UFH (factor XIa): no significant change; improvement in potency over the best sulfated QAO designed earlier (human factor XIa [3]): ~50 fold
2 | C=CCOC(=O)c1c(C)oc2cc(OC)c(OCc3oc4cc(OC)c(OCc5oc6cc(OC)c(OS(=O)(=O)[O-])cc6c5C(=O)OCC)cc4c3C(=O)OCC)cc12.[Na+] [compound 28] | 6.4 ± 0.9 | 10 ± 2 | 
3 | O=C([O-])C1Cc2cc(OS(=O)(=O)[O-])c(OS(=O)(=O)[O-])cc2CN1C(=O)c1cc(OS(=O)(=O)[O-])c(OS(=O)(=O)[O-])c(OS(=O)(=O)[O-])c1.[Na+].[Na+].[Na+].[Na+].[Na+].[Na+] (stereo not shown) [compound 37] |  |  | enhancement of fXIa catalysis in the screen (human factor XIa [4]): 20–30%
4 | O=C(c1cc(OS(=O)(=O)[O-])cc(OS(=O)(=O)[O-])c1)N1CCc2cc(OS(=O)(=O)[O-])c(OS(=O)(=O)[O-])cc2C1.[Na+].[Na+].[Na+].[Na+] [compound 33] |  |  | enhancement of fXIa catalysis in the screen (human factor XIa [4]): 20–30%
5 | CCOC(=O)c1c(COc2cc3c(C(=O)O)c(C)oc3cc2OC)oc2cc(OC)c(OCc3oc4cc(OC)c(OS(=O)(=O)[O-])cc4c3C(=O)OCC)cc12.[Na+] [compound 30] | 6.9 ± 0.7 | 3 ± 2 | less potent than 3-carboxyethyl ester analogue 27 (human factor XIa [3]; IC50 ratio 30 vs 27): 4.7 fold
6 | O=C(Nc1ccc(OS(=O)(=O)[O-])cc1)c1cccc(N2C(=O)c3ccc(C(=O)Nc4ccc(OS(=O)(=O)[O-])cc4)cc3C2=O)c1.[Na+].[Na+] [compound 63] | 6.0 ± 0.9 | 0 ± 1 | 
7 | CCOC(=O)c1c(C)oc2cc(OC)c(OCc3oc4cc(OC)c(OCc5oc6cc(OC)c(OS(=O)(=O)[O-])cc6c5C(=O)OCC)cc4c3C(=O)OCC)cc12.[Na+] [compound 27] | 11.7 ± 1.5 | 2 ± 1 | 
8 | CCOC(=O)c1c(C)oc2cc(OC)c(OCc3oc4cc(OC)c(OCc5oc6cc(OC)c(OCc7oc8cc(OC)c(OS(=O)(=O)[O-])cc8c7C(=O)OCC)cc6c5C(=O)OCC)cc4c3C(=O)OCC)cc12.[Na+] [compound 32] | 1.3 ± 0.2 | 0 ± 1 | 
9 | O=C(c1cc(OS(=O)(=O)[O-])c(OS(=O)(=O)[O-])c(OS(=O)(=O)[O-])c1)N1CCc2cc(OS(=O)(=O)[O-])c(OS(=O)(=O)[O-])cc2C1.[Na+].[Na+].[Na+].[Na+].[Na+] [compound 36] |  |  | enhancement of fXIa catalysis in the screen (human factor XIa [4]): 20–30%
10 | CCOC(=O)c1c(COc2cc3c(C(=O)OCC)c(COc4cc5c(C(=O)O)c(C)oc5cc4OC)oc3cc2OC)oc2cc(OC)c(O)cc12 [compound 29] | 1.9 ± 0.4 | 0 ± 1 | loss in activity from sulfated analogue 30 (human factor XIa [3]; IC50 ratio 29 vs 30): ~13 fold
11 | COC(=O)c1c(C)oc2cc(OC)c(OCc3oc4cc(OC)c(OS(=O)(=O)[O-])cc4c3C(=O)OC)cc12.[Na+] [compound 15] | 6.9 ± 1.2 | 4 ± 4 | 
12 | CCOC(=O)c1c(C)oc2cc(OC)c(OCc3oc4cc(OC)c(OCc5oc6cc(OS(=O)(=O)[O-])c(OC)cc6c5C(=O)OCC)cc4c3C(=O)OCC)cc12.[Na+] [compound 31] |  |  | reduction in residual fXIa activity (inhibition) in the screen (human factor XIa [4]): did not inhibit fXIa
13 | CCOC(=O)c1c(C)oc2cc(OCc3oc4cc(OC)c(OS(=O)(=O)[O-])cc4c3C(=O)OCC)c(OC)cc12.[Na+] [compound 22] |  |  | reduction in residual fXIa activity (inhibition) in the screen (human factor XIa [4]): did not inhibit fXIa
14 | CCOC(=O)c1c(C)oc2cc(OC)c(OCc3oc4cc(OCC)c(OS(=O)(=O)[O-])cc4c3C(=O)OCC)cc12.[Na+] [compound 21] | 1.9 ± 0.3 | 0 ± 2 | VMAX (human factor XIa [1]; 21 at 5 μM, fXIa 0.365 nM): 37.4 ± 1.4 mAU/min; VMAX (human factor XIa [1]; 21 at 7.25 μM, fXIa 0.365 nM): 30.7 ± 0.6 mAU/min; VMAX (human factor XIa [1]; 21 at 10 μM, fXIa 0.365 nM): 20.3 ± 1.2 mAU/min; mechanism of inhibition (human factor XIa [1]): noncompetitive inhibition; change in IC50 in the presence of UFH (factor XIa): no significant change; improvement in potency over the best sulfated QAO designed earlier (human factor XIa [3]): 10 fold
15 | CCOC(=O)c1c(C)oc2cc(OC)c(OCc3oc4cc(OC)c(OCc5oc6cc(OC(C)C)c(OS(=O)(=O)[O-])cc6c5C(=O)OCC)cc4c3C(=O)OCC)cc12.[Na+] [compound 25] | 6.6 ± 0.8 | 3 ± 2 | 
16 | CCOC(=O)c1c(C)oc2cc(OC)c(OCc3oc4cc(OC)c(OCc5oc6cc(OC)c(OS(=O)(=O)[O-])cc6c5C(=O)OC)cc4c3C(=O)OCC)cc12.[Na+] [compound 23] | 5.2 ± 0.4 | 7 ± 1 | 
17 | N#Cc1c(SCC(=O)c2cccc(OS(=O)(=O)[O-])c2OS(=O)(=O)[O-])nc([N+](=O)[O-])c(C#N)c1-c1ccc(Oc2ccccc2)cc1.[Na+].[Na+] [compound 61] | 6.2 ± 0.5 | 0 ± 1 | 
18 | CCOC(=O)C1Cc2cc(OS(=O)(=O)[O-])c(OS(=O)(=O)[O-])cc2CN1C(=O)c1ccc(OS(=O)(=O)[O-])c(OS(=O)(=O)[O-])c1.[Na+].[Na+].[Na+].[Na+] (stereo not shown) [compound 35] |  |  | enhancement of fXIa catalysis in the screen (human factor XIa [4]): 20–30%
